According to patent US20030005484A1, “Microbiocidal and pesticidal aromatic aldehydes” (ProGuard, Inc., priority 1994, published 2003):

Tests used:
[1] = system: grape phylloxera eggs; test: whole plant or invertebrate; conditions: for eggs that did not hatch completely (IH) / nymphs that died in the shell (DIS): 7 days
Description: Mixed age groups of 60 grape phylloxera eggs were established on filter paper (Whatman #1, 5.5 cm circles) in 50×9 mm sealed plastic petri dishes treated with 100 μl of solution. A selected concentration of a test formulation of 400 μl was added to the filter disk and the dish closed with the petri dish cover and placed in a plastic container box. After 6 hours, the box was placed in an environmental chamber at 24° C. in the dark. The eggs were placed in groups of 10. After one week, the percentage of hatch is determined. In an initial test, doses from 0.1 to 25,000 ppm cinnamic aldehyde in 6% NaHCO3 and 2% Tween 80 were evaluated with a single group of eggs at each dosage. Three replicates of the experiment were performed. […] LD50 and LD95 were determined by probit analysis.
Grape phylloxera eggs were treated with cinnamaldehyde (CNMA) in a 6% NaHCO3, 2% Tween-80 formulation in a laboratory bioassay. Mortality of the eggs was indicated by failure of the egg shell to split. […] Leaves of one-year-old greenhouse Vitis vinifera cultivar Merlot vines heavily infested with grape phylloxera were sprayed to run-off with a CNMA treatment using the same formulation. […] Roots taken from plants 1, 2 and 5 weeks after CNMA or other treatments were placed in Petri dish bioassays and infested with untreated phylloxera eggs.
Eggs of various age classes were placed on Whatman #1 filter paper moistened with enough treatment solution to form a meniscus about halfway up the sides of the eggs. The pieces of filter paper with eggs were maintained in sealed plastic Petri dishes at […] until they were 7 days old and then hatched individuals were counted. Hatch was considered successful if the […]

[2] = system: leafhoppers; test: leafhoppers on cabernet sauvignon grapevines, 0.3% spray; assay type: in vivo; conditions: 0.3% CNMA; two days after spraying; untreated 2.46
Description: (§1) The effect of 0.3% cinnamic aldehyde on leafhoppers and spider mites on grapevine leaves was examined. 30% cinnamic aldehyde was diluted 1:100 in water and sprayed one time on a 1 acre block of cabernet sauvignon grapevines in a vineyard using a 300 gal Pul-Blast rsprayer at 160 psi. 120 gal. were applied to one acre of vineyard. As a control, a one-acre block remained untreated. Blocks were pseudo-replicated so as to obtain an indication of the reliability of the treatment. Prior to treatment mites on leaves were pre-counted using a dissecting microscope. Leafhopper numbers also were determined in the field prior to treatment. Two days after spraying, two leaves, one from the basal portion and one from the proximal portion of the vine were examined from 16 vines from 2 rows for each treatment. Leaf samples also were taken from both sides of the vines (north and south) to include variation due to vine exposure. […]

[3] = system: Silverleaf Whitefly (Bemisia argentifolii); test: silverleaf whitefly 1st and 2nd instars on poinsettia; assay type: in vivo; conditions: 0.5% cinnamic aldehyde and […] Tween 20, 48 hours
Description: Clip cages were set on poinsettia plants leaves to capture white fly adults which then were allowed to oviposit for 48 hours. Four plants per treatment or control were put into an environmental chamber and the eggs allowed to incubate for 5 days until a majority of the eggs had hatched to first and second instar. Three treatments at 0.5% cinnamic aldehyde and 0.25% Tween 20 (T1, T2, T3) and three control treatments of 0.25% Tween 20 only (C1, C2, C3) were sprayed to run off on each plant. Mortality was recorded after 48 hours (see Table 23).

[4] = system: melon aphid (Aphis gossypii Glover); test: melon aphid plant foliar bioassay on chrysanthemum; assay type: in vivo; conditions: for Mean Number of Aphid Nymphs Per Leaf: sprayed to runoff, after 36 hours, pre-count 60
Description: Treatment of melon aphid (Aphis gossypii Glover) was conducted as follows. Chrysantemums (C. morifolum) were used for melon aphid plant foliar bioassays. Plants were grown in […] pots in planting soil in greenhouse. Flowering plants were infested and pre-count population size for each plant were taken and number of mean of aphids nymphs per leaf calculated. The plants were sprayed to runoff (about 5 ml) with an aqueous formulation containing 1,000 ppm, 3,000 ppm, and 10,000 ppm concentration of cinnamic aldehyde, and a negative control containing only H2O. After 36 hours, the number of insects on the leaves sprayed with a given test formulation was determined and compared with that of insects on leaves sprayed with negative control only. Mean number of aphid nymphs per leaf were determined to be less than 10 for each cinnamic aldehyde concentration as compared to a pre-count mean of about 60.

[5] = system: Spider Mites; test: spider mites on cabernet sauvignon grapevines, 0.3% spray; assay type: in vivo; conditions: 0.3% CNMA; two days after spraying; untreated 17.9
Description: as §1

[6] = system: grape phylloxera; test: reinoculation bioassay of roots excised from leaf-treated vines; assay type: in vivo, Daktulosphaira vitifoliae; conditions: for phylloxera counted: 1st instar / phylloxera counted: 2nd instar / phylloxera counted: 3rd instar / phylloxera counted: 4th instar / phylloxera counted: Adults / phylloxera counted: Eggs: roots taken 5 weeks after treatment, 25 day bioassay
Description: […] For this bioassay, root sections were inoculated with 20 eggs and the roots maintained as the original colonies were maintained (see description above). After 25 days, the number of individual phylloxera of each age class were counted.

[7] = 10 ppm in 6% NaHCO3, 2% Tween 80
[8] = 100 ppm in 6% NaHCO3, 2% Tween 80

Structure (SMILES): O=C/C=C/c1ccccc1 [cinnamic aldehyde]
- 7 day EC50, egg mortality (failure of the egg shell to split) ([1]; 6% NaHCO3, 2% Tween-80 formulation): 115 ppm
- eggs that did not hatch completely (IH) [1, 7]: 100%
- nymphs that died in the shell (DIS) [1, 7]: none died in the shell
- eggs that did not hatch completely (IH) [1, 8]: 12%
- nymphs that died in the shell (DIS) [1, 8]: 88%
- nymphs that died in the shell (DIS) ([1]; 100 ppm in 6% NaHCO3, 2% Tween 80 plus 0.86 ml of 10 brix saponin solution): 93%
- nymphs that died in the shell (DIS) ([1]; 5000 ppm aldehyde in 6% NaHCO3, 2% Tween 80): all nymphs died in the shell
- Approximate Percent Mortality, egg test ([1]; CNMA 100 ppm, Days of Treatment 1): 8%
- Approximate Percent Mortality, egg test ([1]; CNMA 100 ppm, Days of Treatment 2): 0%
- Approximate Percent Mortality, egg test ([1]; CNMA 100 ppm, Days of Treatment 3): 0%
- Approximate Percent Mortality, egg test ([1]; CNMA 100 ppm, Days of Treatment 4): 6%
- Approximate Percent Mortality, egg test ([1]; CNMA 100 ppm, Days of Treatment 5): 25%
- Approximate Percent Mortality, egg test ([1]; CNMA 180 ppm, Days of Treatment 1): 100%
- Approximate Percent Mortality, egg test ([1]; CNMA 180 ppm, Days of Treatment 2): 0%
- Approximate Percent Mortality, egg test ([1]; CNMA 180 ppm, Days of Treatment 3): 0%
- Approximate Percent Mortality, egg test ([1]; CNMA 180 ppm, Days of Treatment 4): 47%
- Approximate Percent Mortality, egg test ([1]; CNMA 180 ppm, Days of Treatment 5): 72%
- Approximate Percent Mortality, egg test ([1]; CNMA 320 ppm, Days of Treatment 1): 100%
- Approximate Percent Mortality, egg test ([1]; CNMA 320 ppm, Days of Treatment 2): 37%
- Approximate Percent Mortality, egg test ([1]; CNMA 320 ppm, Days of Treatment 3): 28%
- Approximate Percent Mortality, egg test ([1]; CNMA 320 ppm, Days of Treatment 4): 85%
- Approximate Percent Mortality, egg test ([1]; CNMA 320 ppm, Days of Treatment 5): 100%
- approximate egg hatch LD 50 ([1]; egg tests with CNMA analogs): 320 ppm
- LEAFHOPPERS/LEAF [2]: 0.16
- Alive, total of T1-T3 [3]: 35
- Dead, total of T1-T3 [3]: 363
- Mortality (%) ([3]; T1-T3 combined, Tween 20 control 9%): 91%
- Mean Number of Aphid Nymphs Per Leaf ([4]; CNMA 1,000 ppm in H2O): 6 ± 3
- Mean Number of Aphid Nymphs Per Leaf ([4]; CNMA 3,000 ppm in H2O): 4 ± 3
- Mean Number of Aphid Nymphs Per Leaf ([4]; CNMA 10,000 ppm in H2O): 1 ± 1
- Mean number of aphid nymphs per leaf ([4]; each concentration (1,000, 3,000, 10,000 ppm), pre-count mean of about 60): less than 10
- MITES/LEAF [5]: 3.27
- phylloxera counted: 1st instar ([6]; 300 ppm leaf treatment): 0
- phylloxera counted: 2nd instar ([6]; 300 ppm leaf treatment): 6
- phylloxera counted: 3rd instar ([6]; 300 ppm leaf treatment): 5
- phylloxera counted: 4th instar ([6]; 300 ppm leaf treatment): 0
- phylloxera counted: Adults ([6]; 300 ppm leaf treatment): 4
- phylloxera counted: Eggs ([6]; 300 ppm leaf treatment): 16
- phylloxera counted: 1st instar ([6]; 1000 ppm leaf treatment): 0
- phylloxera counted: 2nd instar ([6]; 1000 ppm leaf treatment): 1
- phylloxera counted: 3rd instar ([6]; 1000 ppm leaf treatment): 4
- phylloxera counted: 4th instar ([6]; 1000 ppm leaf treatment): 2
- phylloxera counted: Adults ([6]; 1000 ppm leaf treatment): 1
- phylloxera counted: Eggs ([6]; 1000 ppm leaf treatment): 2
- phylloxera counted: 1st instar ([6]; 3000 ppm leaf treatment): 0
- phylloxera counted: 2nd instar ([6]; 3000 ppm leaf treatment): 2
- phylloxera counted: 3rd instar ([6]; 3000 ppm leaf treatment): 1
- phylloxera counted: 4th instar ([6]; 3000 ppm leaf treatment): 1
- phylloxera counted: Adults ([6]; 3000 ppm leaf treatment): 0
- phylloxera counted: Eggs ([6]; 3000 ppm leaf treatment): 0
- phylloxera counted: 1st instar ([6]; 10,000 ppm leaf treatment): 0
- phylloxera counted: 2nd instar ([6]; 10,000 ppm leaf treatment): 2
- phylloxera counted: 3rd instar ([6]; 10,000 ppm leaf treatment): 0
- phylloxera counted: 4th instar ([6]; 10,000 ppm leaf treatment): 0
- phylloxera counted: Adults ([6]; 10,000 ppm leaf treatment): 0
- phylloxera counted: Eggs ([6]; 10,000 ppm leaf treatment): 0
- establishment of new phylloxera populations on roots from treated plants ([6]; roots taken 1, 2 and 5 weeks after treatment, infested with untreated eggs): not from the CNMA-treated plants
